{
  "source": "patent US10287269B2",
  "about": "“Pyrazolyl pyrimidinone compounds as PDE2 inhibitors” (Merck Sharp & Dohme Corp., priority 2015, dated 2019)",
  "molecular_target": "T1, human PDE2A1 (Homo sapiens, UniProt O00408)",
  "T1 construct": "GST; purchased BPS Bioscience (San Diego, Calif.) 60020; host or cells: insect cells",
  "T1 sequence (O00408 1-920 isoform O00408-2)": "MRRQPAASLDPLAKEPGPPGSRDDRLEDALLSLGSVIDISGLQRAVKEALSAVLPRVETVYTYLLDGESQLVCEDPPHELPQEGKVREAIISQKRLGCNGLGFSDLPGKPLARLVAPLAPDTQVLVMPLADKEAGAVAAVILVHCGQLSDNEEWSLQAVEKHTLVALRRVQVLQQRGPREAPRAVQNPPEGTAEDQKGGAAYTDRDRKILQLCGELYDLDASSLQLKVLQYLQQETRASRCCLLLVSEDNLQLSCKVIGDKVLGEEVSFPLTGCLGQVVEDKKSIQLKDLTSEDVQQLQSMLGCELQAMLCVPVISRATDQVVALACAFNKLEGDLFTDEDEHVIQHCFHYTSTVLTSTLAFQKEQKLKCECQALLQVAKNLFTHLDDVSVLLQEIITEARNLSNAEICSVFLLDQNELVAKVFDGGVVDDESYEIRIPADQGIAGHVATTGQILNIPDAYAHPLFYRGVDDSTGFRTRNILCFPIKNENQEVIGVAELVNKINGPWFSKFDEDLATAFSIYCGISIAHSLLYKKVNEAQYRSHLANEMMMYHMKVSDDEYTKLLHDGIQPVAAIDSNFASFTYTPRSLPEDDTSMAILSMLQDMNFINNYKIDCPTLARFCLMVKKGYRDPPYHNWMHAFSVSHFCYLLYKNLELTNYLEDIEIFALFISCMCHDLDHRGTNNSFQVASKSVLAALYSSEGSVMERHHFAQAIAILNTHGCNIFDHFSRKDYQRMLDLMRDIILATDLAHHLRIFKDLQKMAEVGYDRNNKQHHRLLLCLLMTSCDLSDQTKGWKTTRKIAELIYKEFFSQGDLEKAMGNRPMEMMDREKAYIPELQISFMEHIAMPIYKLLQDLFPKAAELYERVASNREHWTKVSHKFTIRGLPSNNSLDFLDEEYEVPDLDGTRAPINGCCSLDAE",
  "assay": "PDE2 IMAP FP inhibition assay, human enzyme (PDE selectivity panel format)",
  "assay_type": "biochemical",
  "details": "Lab A; read-out: Human PDE2 Ki (nM) Lab A",
  "experimental": "Selectivity for PDE2, as compared to other PDE families, was assessed using the IMAP® technology. Human PDE10A2 enzyme was prepared from cytosolic fractions of transiently transfected HEK cells. All other PDE's were GST Tag human enzyme expressed in insect cells and were obtained from BPS Bioscience (San Diego, Calif.): PDE1A (Cat#60010), human PDE2A1 (Cat#60020), PDE3A (Cat#60030), PDE4A1A (Cat#60040), PDE5A1 (Cat#60050), PDE6C (Cat#60060), PDE7A (Cat#60070), PDE8A1 (Cat#60080), PDE9A2 (Cat#60090), PDE11A4 (Cat#60110).\nAssays for PDE 1 through 11 were performed in parallel at room temperature in 384-well microtiter plates with an incubation volume of 20.2 μL. Solutions of test compounds were prepared in DMSO and serially diluted with DMSO to yield 30 μL of each of ten solutions differing by 3-fold in concentration, at 32 serial dilutions per plate. […] A Labcyte POD 810 (Labcyte, Sunnyvale, Calif.) was used to dispense 200 nL from each well of the titration plate to make eleven copies of the assay plate for each titration, one copy for each PDE enzyme. A solution of each enzyme (dilution from aliquots, sufficient to produce 20% substrate conversion) and a separate solution of FAM-labeled cAMP or FAM-labeled cGMP from Molecular Devices (Sunnyvale, Calif., product # R7506 or cGMP#R7508), at a final concentration of 50 nM were made in the assay buffer (10 mM Tris HCl, pH 7.2, 10 mM MgCl2, 0.05% NaN3 0.01% Tween-20, and 1 mM DTT). Note that the substrate for PDE2 is 50 nM FAM cAMP containing 1000 nM of cGMP. The enzyme and the substrate were then added to the assay plates in two consecutive additions of 10 μL and then shaken to mix. The reaction was allowed to proceed at room temperature for 60 minutes. A binding solution was then made from the kit components, comprised of 80% Solution A, 20% Solution B and binding reagent at a volume of 1/600 the total binding solution. The enzymatic reaction was stopped by addition of 60 μL of the binding solution to each well of the assay plate. The plates were sealed and shaken for 10 seconds. The plates were incubated at room temperature for one hour, then the parallel and perpendicular fluorescence was measured using a Tecan Genios Pro plate reader (Tecan, Switzerland). The apparent inhibition constants for the compounds against all 11 PDE's was determined from the parallel and perpendicular fluorescent readings as described for PDE10 FP assay using the following apparent KM values for each enzyme and substrate combination: PDE1A (FAM cGMP) 70 nM, human PDE2A1 (FAM cAMP) 10,000 nM, PDE3A (FAM cAMP) 50 nM, PDE4A1A (FAM cAMP) 1500 nM, PDE5A1 (FAM cGMP) 400 nM, PDE6C (FAM cGMP) 700 nM, PDE7A (FAM cAMP) 150 nM, PDE8A1 (FAM cAMP) 50 nM, PDE9A2 (FAM cGMP) 60 nM, PDE10A2 (FAM cAMP) 150 nM, PDE11A4 (FAM cAMP) 1000 nM. The intrinsic PDE2 inhibitory activity of a compound which may be used in accordance with the present invention may be determined by these assays. […]",
  "data": [
    {"smiles": "Cc1nc(-c2cn(C(C)c3ccc(C(F)(F)F)cc3F)nc2C)cc(=O)[nH]1", "note": "(single isomer, unassigned) [Example 69, (R)- or (S)-(6-(1-(1-(2-fluoro-4-(trifluoromethyl)phenyl)ethyl)-3-methyl-1H-pyrazol-4-yl)-2-methylpyrimidin-4(3H)-one]", "values": [
      {"measurement": "Ki", "value": 32.6, "unit": "nM"}
    ]},
    {"smiles": "CCc1ccc(C(CO)c2cnn(-c3cc(=O)[nH]c(C)n3)c2)c(F)c1", "note": "(single isomer, unassigned) [Example 115, (R)- or (S)-6-(4-(1-(4-ethyl-2-fluorophenyl)-2-hydroxyethyl)-1H-pyrazol-1-yl)-2-methylpyrimidin-4(3H)-one]", "values": [
      {"measurement": "Ki", "value": 163, "unit": "nM"}
    ]},
    {"smiles": "Cc1nc(-c2cnn(C(C)c3ccc(CC(F)(F)F)cc3C)c2)cc(=O)[nH]1", "note": "(single isomer, unassigned) [Example 106, (S)- or (R)-2-methyl-6-(1-(1-(2-methyl-4-(2,2,2-trifluoroethyl)phenyl)ethyl)-1H-pyrazol-4-yl)pyrimidin-4(3H)-one]", "values": [
      {"measurement": "Ki", "value": 710, "unit": "nM"}
    ]},
    {"smiles": "Cc1nc(-c2cnn([C@H](C)c3c(F)cc(C(F)(F)F)cc3F)c2)cc(=O)[nH]1", "note": "(single isomer, unassigned) [Example 7]", "values": [
      {"measurement": "Ki", "value": 126, "unit": "nM"}
    ]},
    {"smiles": "CCc1ccc([C@](C)(O)c2cnn(-c3cc(=O)[nH]c(C)n3)c2)c(F)c1", "note": "(single isomer, unassigned) [Example 12]", "values": [
      {"measurement": "Ki", "value": 244, "unit": "nM"}
    ]},
    {"smiles": "CCc1ccc(C(CO)c2cnn(-c3cc(=O)[nH]c(C)n3)c2)c(F)c1", "note": "(single isomer, unassigned) [Example 116, (S)- or (R)-6-(4-(1-(4-ethyl-2-fluorophenyl)-2-hydroxyethyl)-1H-pyrazol-1-yl)-2-methylpyrimidin-4(3H)-one]", "values": [
      {"measurement": "Ki", "value": 537, "unit": "nM"}
    ]},
    {"smiles": "Cc1nc(-c2cnn(C(CO)c3ccc(C(F)(F)F)cc3Cl)c2)cc(=O)[nH]1", "note": "(single isomer, unassigned) [Example 122, (R)- or (S)-6-(1-(1-(2-chloro-4-(trifluoromethyl)phenyl)-2-hydroxyethyl)-1H-pyrazol-4-yl)-2-methylpyrimidin-4(3H)-one]", "values": [
      {"measurement": "Ki", "value": 616, "unit": "nM"}
    ]},
    {"smiles": "Cc1nc(-c2cnn(C(C)c3ccc(CC(F)(F)F)cc3C)c2)cc(=O)[nH]1", "note": "(single isomer, unassigned) [Example 105, (R)- or (S)-2-methyl-6-(1-(1-(2-methyl-4-(2,2,2-trifluoroethyl)phenyl)ethyl)-1H-pyrazol-4-yl)pyrimidin-4(3H)-one]", "values": [
      {"measurement": "Ki", "value": "> 2960", "unit": "nM"}
    ]},
    {"smiles": "Cc1nc(-c2cnn(C(CO)c3ccc(C(F)(F)F)cc3Cl)c2)cc(=O)[nH]1", "note": "(single isomer, unassigned) [Example 123, (S)- or (R)-6-(1-(1-(2-chloro-4-(trifluoromethyl)phenyl)-2-hydroxyethyl)-1H-pyrazol-4-yl)-2-methylpyrimidin-4(3H)-one]", "values": [
      {"measurement": "Ki", "value": 6.5, "unit": "nM"}
    ]},
    {"smiles": "Cc1nc(-c2cnn([C@H](C)c3c(F)cc(C(F)(F)F)cc3F)c2)cc(=O)[nH]1", "note": "(single isomer, unassigned) [Example 8]", "values": [
      {"measurement": "Ki", "value": 107, "unit": "nM"}
    ]},
    {"smiles": "Cc1nc(-c2cnn(C(CO)c3ccc(C(F)(F)F)cc3F)c2)cc(=O)[nH]1", "note": "(single isomer, unassigned) [Example 110, (S)- or (R)-6-(1-(1-(2-fluoro-4-(trifluoromethyl)phenyl)-2-hydroxyethyl)-1H-pyrazol-4-yl)-2-methylpyrimidin-4(3H)-one]", "values": [
      {"measurement": "Ki", "value": 299, "unit": "nM"}
    ]},
    {"smiles": "CCc1ccc([C@@H](CO)n2cc(-c3cc(=O)[nH]c(C)n3)cn2)c(Cl)c1", "note": "(single isomer, unassigned) [Example 18]", "values": [
      {"measurement": "Ki", "value": 10.7, "unit": "nM"}
    ]},
    {"smiles": "Cc1nc(-n2cc(C(C)(O)c3ccc(C(F)(F)F)cc3Cl)cn2)cc(=O)[nH]1", "note": "(single isomer, unassigned) [Example 118, (S)- or (R)-6-(4-(1-(2-chloro-4-(trifluoromethyl)phenyl)-1-hydroxyethyl)-1H-pyrazol-1-yl)-2-methylpyrimidin-4(3H)-one]", "values": [
      {"measurement": "Ki", "value": 47.8, "unit": "nM"}
    ]},
    {"smiles": "CCc1ccc([C@@H](CO)n2cc(-c3cc(=O)[nH]c(C)n3)cn2)c(Cl)c1", "note": "(single isomer, unassigned) [Example 17]", "values": [
      {"measurement": "Ki", "value": 683, "unit": "nM"}
    ]},
    {"smiles": "Cc1nc(-c2cnn(C(CO)c3ccc(C(F)(F)F)cc3F)c2)cc(=O)[nH]1", "note": "(single isomer, unassigned) [Example 109, (R)- or (S)-6-(1-(1-(2-fluoro-4-(trifluoromethyl)phenyl)-2-hydroxyethyl)-1H-pyrazol-4-yl)-2-methylpyrimidin-4(3H)-one]", "values": [
      {"measurement": "Ki", "value": 27.5, "unit": "nM"}
    ]},
    {"smiles": "Cc1nc(-n2cc(C(C)(O)c3ccc(C(F)(F)F)cc3Cl)cn2)cc(=O)[nH]1", "note": "(single isomer, unassigned) [Example 117, (R)- or (S)-6-(4-(1-(2-chloro-4-(trifluoromethyl)phenyl)-1-hydroxyethyl)-1H-pyrazol-1-yl)-2-methylpyrimidin-4(3H)-one]", "values": [
      {"measurement": "Ki", "value": 4.4, "unit": "nM"}
    ]},
    {"smiles": "Cc1nc(-c2cnn(C(C)c3ccc(C(F)(F)F)cc3F)c2C)cc(=O)[nH]1", "note": "(single isomer, unassigned) [Example 71, (R)- or (S)-6-(1-(1-(2-fluoro-4-(trifluoromethyl)phenyl)ethyl)-5-methyl-1H-pyrazol-4-yl)-2-methylpyrimidin-4(3H)-one]", "values": [
      {"measurement": "Ki", "value": 16.5, "unit": "nM"}
    ]},
    {"smiles": "CCc1ccc(C(CO)c2cnn(-c3cc(=O)[nH]c(C)n3)c2)c(Cl)c1", "note": "(single isomer, unassigned) [Example 120, (R)- or (S)-6-(4-(1-(2-chloro-4-ethylphenyl)-2-hydroxyethyl)-1H-pyrazol-1-yl)-2-methylpyrimidin-4(3H)-one]", "values": [
      {"measurement": "Ki", "value": 321, "unit": "nM"}
    ]},
    {"smiles": "COC(=O)C(c1ccc(C(F)(F)F)cc1F)n1cc(-c2cc(=O)[nH]c(C)n2)cn1", "note": "(stereo not drawn) [Example 113, methyl 2-(2-fluoro-4-(trifluoromethyl)phenyl)-2-(4-(2-methyl-6-oxo-1,6-dihydropyrimidin-4-yl)-1H-pyrazol-1-yl)acetate]", "values": [
      {"measurement": "Ki", "value": 1970, "unit": "nM"}
    ]},
    {"smiles": "Cc1nc(-c2cnn(C(C)c3ccc(C4CC4)cc3Cl)c2)cc(=O)[nH]1", "note": "(single isomer, unassigned) [Example 107, (R)- or (S)-6-(1-(1-(2-chloro-4-cyclopropylphenyl)ethyl)-1H-pyrazol-4-yl)-2-methylpyrimidin-4(3H)-one]", "values": [
      {"measurement": "Ki", "value": 9.4, "unit": "nM"}
    ]},
    {"smiles": "CCc1ccc(C(C(=O)OC)n2cc(-c3cc(=O)[nH]c(C)n3)cn2)c(Cl)c1", "note": "(stereo not drawn) [Example 114, methyl 2-(2-chloro-4-ethylphenyl)-2-(4-(2-methyl-6-oxo-1,6-dihydropyrimidin-4-yl)-1H-pyrazol-1-yl)acetate]", "values": [
      {"measurement": "Ki", "value": 1820, "unit": "nM"}
    ]},
    {"smiles": "CCc1ccc([C@](C)(O)c2cnn(-c3cc(=O)[nH]c(C)n3)c2)c(F)c1", "note": "(single isomer, unassigned) [Example 11]", "values": [
      {"measurement": "Ki", "value": 42.5, "unit": "nM"}
    ]},
    {"smiles": "CCCc1ccc([C@](C)(O)c2cnn(-c3cc(=O)[nH]c(C)n3)c2)c(F)c1", "note": "(single isomer, unassigned) [Example 13]", "values": [
      {"measurement": "Ki", "value": 287, "unit": "nM"}
    ]},
    {"smiles": "Cc1nc(-c2cnn(C(C)c3ccc(C(F)(F)F)cc3F)c2C)cc(=O)[nH]1", "note": "(single isomer, unassigned) [Example 72, (S)- or (R)-6-(1-(1-(2-fluoro-4-(trifluoromethyl)phenyl)ethyl)-5-methyl-1H-pyrazol-4-yl)-2-methylpyrimidin-4(3H)-one]", "values": [
      {"measurement": "Ki", "value": 412, "unit": "nM"}
    ]},
    {"smiles": "CCc1ccc(C(C)(O)c2cnn(-c3cc(=O)[nH]c(C)n3)c2)c(Cl)c1", "note": "(stereo not drawn) [Example 119, 6-(4-(1-(2-chloro-4-ethylphenyl)-1-hydroxyethyl)-1H-pyrazol-1-yl)-2-methylpyrimidin-4(3H)-one]", "values": [
      {"measurement": "Ki", "value": 16.7, "unit": "nM"}
    ]},
    {"smiles": "CCCc1ccc([C@](C)(O)c2cnn(-c3cc(=O)[nH]c(C)n3)c2)c(F)c1", "note": "(single isomer, unassigned) [Example 14]", "values": [
      {"measurement": "Ki", "value": 1400, "unit": "nM"}
    ]},
    {"smiles": "Cc1nc(-c2cn(C(C)c3ccc(C(F)(F)F)cc3F)nc2C)cc(=O)[nH]1", "note": "(single isomer, unassigned) [Example 70, (S)- or (R)-(6-(1-(1-(2-fluoro-4-(trifluoromethyl)phenyl)ethyl)-3-methyl-1H-pyrazol-4-yl)-2-methylpyrimidin-4(3H)-one]", "values": [
      {"measurement": "Ki", "value": 312, "unit": "nM"}
    ]}
  ]
}
